The values that follow come from PMC5041077, “Metabolic profile and safety of piperlongumine” (Scientific Reports, 2016).

For data set [1], the system named is human liver microsomes. In words: In vitro kinetic study of PPL metabolism (substrate depletion) in human liver microsomes. Format: in vitro ADME. The protocol: The in vitro kinetic study was performed setting the incubation conditions through the maintenance of initial velocity (V0); 0.45 mg/mL microsomal protein and 16 min time incubation were selected and the substrate concentration was ranged from 0.38 to 283.6 μM. The substrate depletion was quantified employing an analytical validated method (Tables S1, S2 and S3 and Fig. S1-Supplementary Information).
The metabolism was evaluated by measuring the rate of disappearance of the PPL peak. The incubations were performed in triplicate using 10 mL amber tubes. The metabolism medium consisted of substrate, a NADPH regeneration system solution A (1.3 mM NADP^+ and 3.3 mM glucose-6-phosphate), a NADPH regeneration system solution B (0.4 U/mL glucose-6-phosphate dehydrogenase), HLM and a potassium phosphate buffer pH 7.4 (100 mM) in a total volume of 200 μL. This microsomal medium was incubated in a shaking water bath at 37 °C. After pre-warming for 5 min at 37 °C to favor the formation of NADPH from the solutions A and B, the reaction was initiated by the addition of the HLM. To determine the enzymatic kinetic parameters, the linear conditions for microsomal protein concentration and for incubation time were optimized. The microsomal protein concentration was evaluated from 0.1 to 1.5 mg of protein per mL (n = 3), and the incubation time was varied from 0 to 40 min (n = 3). The linear range was obtained from these parameters and used to perform the substrate variation concentration at V0 conditions. The reactions were stopped by the addition of 200 μL of cold acetonitrile, gently agitated for 20 s and then centrifuged for 5 min at 2860x g. Finally, aliquots of the supernatant were removed and injected into the chromatographic system. Control incubations were performed in the absence of the cofactor solution and in the absence of the HLM. The difference between ‘with’ and ‘without’ NADPH was attributed to CYP450-mediated metabolism.
(§1) The kinetic parameters were calculated from nonlinear regression using GraphPad Prism Version 3.03 (San Diego, CA, USA). The Intrinsic Clearance (CLint) was obtained considering the Hill coefficient. The Unbounded Intrinsic Clearance (CLuint), Predicted in vivo Clearance (CL) and Hepatic Clearance (CLH) were determined according to Subramarian and Tracy[15] and Austin et al.[17]. Hepatic extraction ratio was calculated according to Kashuba et al.[21]. Dose-dependent inhibition parameters were determined employing SigmaPlot version 12.0 (Chicago, IL, USA). The Lineweaver-Burk plot was used to determine the inhibition profile. The second plot of slopes from Lineweaver-Burk plot versus PPL concentrations was utilized to calculate the Ki. The parameters kinact and KI in time-dependent inhibition were calculated employing GraphPad Prism Version 3.03.
(Microsomes from liver hold many membrane-bound enzymes, among them those of drug oxidation.)

The nature of data set [2]: Piperlongumine microsomal protein binding (ultrafiltration). The following applies: human, pooled human liver microsomes; PPL 127.70 μM; read-out: fumic (free fraction of the compound in the microsomal incubation). It counts as in vitro ADME. The protocol: Piperlongumine-protein binding. An in vitro study with a microsomal and plasma protein was carried out using a concentration of PPL approximately corresponding to its S50 (n = 3). The plasma protein binding was evaluated to predict the in vivo clearance, using a plasma protein concentration of 42 mg/mL. The samples were incubated with pooled human liver microsomes at 37 °C as described in section above. The same V0 conditions obtained (protein concentration and incubation time) were applied in this study, but in the absence of the cofactor NADPH. Furthermore, a control sample without protein was analyzed simultaneously for comparison purposes. These mixtures were added to the centrifugal filter device (Microcon YM-30, 30,000 molecular weight cut-off; Millipore Corporation, Bedford, MA, USA) and centrifuged at 21800 x g for 30 min at 37 °C (Hitachi CF16RXII, Himac, Tokyo, Japan). The ultra-filtrate was directly assayed by high-performance liquid chromatography at the conditions previously described.

For data set [3], the target named is T1, CYP1A2 (Homo sapiens, UniProt P05177). In words: Mechanism-based (time-dependent) inhibition of CYP1A2 by piperlongumine. Format: in vitro ADME. Further details: kinact: dose or concentration left out as unconfirmed. The following applies: human liver microsomes, pH 7.4, probe phenacetin […] µM. Here is the method: Reactions were terminated as described above.
T1 sequence (P05177 whole entry): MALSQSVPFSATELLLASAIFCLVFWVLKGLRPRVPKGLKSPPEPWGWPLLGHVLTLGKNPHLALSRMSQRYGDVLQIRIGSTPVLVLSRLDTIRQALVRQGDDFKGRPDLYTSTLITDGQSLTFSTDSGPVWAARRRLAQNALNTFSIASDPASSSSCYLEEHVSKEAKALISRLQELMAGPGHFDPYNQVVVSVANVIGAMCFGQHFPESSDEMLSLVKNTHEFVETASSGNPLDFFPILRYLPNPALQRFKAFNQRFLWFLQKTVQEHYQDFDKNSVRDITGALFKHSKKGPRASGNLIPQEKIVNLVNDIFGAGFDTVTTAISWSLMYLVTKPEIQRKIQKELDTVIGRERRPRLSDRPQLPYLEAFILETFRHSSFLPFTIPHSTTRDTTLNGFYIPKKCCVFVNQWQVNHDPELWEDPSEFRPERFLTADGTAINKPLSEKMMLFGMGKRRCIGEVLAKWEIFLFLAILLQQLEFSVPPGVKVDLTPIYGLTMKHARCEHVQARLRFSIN
as §1

Data set [4] can be described thus: Piperlongumine stability assay (microsomal medium). Format: physicochemical. Here is the method: Method validation protocol and results. The quantification method of PPL was validated by following the European Medicines Agency (EMA) guidelines. Analytical curves were obtained by spiking 200 µL aliquots of HLM with PPL 0.38; 0.95; 9.45; 141.80; 236.34 and 283.61 µM. The linearity was carried out and assessed in triplicate. The linearity was determined using the correlation coefficient (r), the F test for lack-of-fit and a p value of 0.05. The MINITAB Release version 14.1 software (State College, PA, USA) was used to conduct the statistical analysis (Table S1). Carbamazepine (2120 µM) was used as internal standard, and the ratio of the peak area of the PPL and carbamazepine was defined as the analytical response. The lower limit of quantification (LLQ) was obtained by spiking the incubation mixture samples at a concentration of 0.38 µM. The selectivity of the method was assured by analyzing the standard solutions of reagents and the blank HLM (Fig. S1). The absolute recovery (%) was performed at three different concentrations: 0.95, 141.8, 212.7 µM. The recovery was expressed as the percentage of the extracted amount, by comparing the areas from the samples subjected to the extraction procedure with the areas from the analysis of standard solutions of the same concentration that were not submitted to the extraction process. To assess the within-day precision and accuracy, replicate analyzes (n = 5) of 200 µL of microsomal medium spiked at concentrations 0.38, 0.95; 141.8 and 236.3 µM was analyzed in a single day. For between-day assays, samples at the same concentration described above were analyzed for three consecutive days (n = 5) (Table S2). These samples were quantified using a new calibration curve prepared daily. The stability assays were performed to evaluate the PPL stability at three different conditions: (i) at room temperature (25 °C ± 2 °C, for 4 h), (ii) at incubation conditions (37 °C, for 60 min) and (iv) in the autosampler equipment (25 °C ± 2 °C, for 24 h). These assays aimed to evaluate the stability of PPL during sample preparation, during the metabolism reaction and during the analysis, respectively. […] The peak area obtained from the stability assays was quantified using a fresh analytical curve prepared daily. The samples were considered stable when the relative error (RE, %) from the nominal concentration was within ±15% and when the relative standard deviation (RSD%) was below 15% (Table S3).

The target in data set [5] is CYP3A4 (Homo sapiens, UniProt P08684). In words: biochemical.
CYP3A4, sequence (P08684 whole entry): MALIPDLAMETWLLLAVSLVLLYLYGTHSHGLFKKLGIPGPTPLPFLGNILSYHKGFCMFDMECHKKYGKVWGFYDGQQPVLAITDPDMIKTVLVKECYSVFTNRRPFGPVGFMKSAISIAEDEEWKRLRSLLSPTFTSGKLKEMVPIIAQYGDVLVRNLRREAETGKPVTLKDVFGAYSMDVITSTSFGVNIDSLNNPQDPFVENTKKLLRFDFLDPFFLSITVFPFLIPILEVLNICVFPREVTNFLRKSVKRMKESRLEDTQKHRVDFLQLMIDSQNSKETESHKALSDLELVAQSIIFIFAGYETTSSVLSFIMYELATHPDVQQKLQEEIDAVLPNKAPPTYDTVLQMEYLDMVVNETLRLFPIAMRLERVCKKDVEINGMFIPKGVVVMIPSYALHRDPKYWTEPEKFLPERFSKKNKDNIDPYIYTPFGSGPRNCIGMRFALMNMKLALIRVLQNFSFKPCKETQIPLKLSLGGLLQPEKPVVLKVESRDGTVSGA
Data set [6] has as its target T1, CYP1A2. In words: IC50 assay, phenacetin O-deethylation in HLM.

In data set [1] (HLM 0.45 mg/mL, 16 min), `COc1cc(/C=C/C(=O)N2CCC=CC2=O)cc(OC)c1OC` [PPL, Piperlongumine] came in with a Hill coefficient of 3.0. Further, the S50 in data set [1] (HLM 0.45 mg/mL, 16 min, sigmoidal profile) is 127.7 µM. The Vmax in data set [1] (HLM 0.45 mg/mL, 16 min, substrate 0.38 to 283.6 μM, sigmoidal profile) worked out at 5.5 ± 0.5 nmol/mg protein/min. Besides, in data set [1] (human vs rat liver microsomes, rat value ref 19), the “S50 in human relative to the value observed in rats” value is recorded as 2.7 times. The fraction unbound at 127.7 μM in data set [2] was found to be 0.76. The maximal inactivation rate constant (kinact) in data set [3] is 0.000233 s⁻¹. In addition, the KI (inactivation) in data set [3] (read-out: KI (inactivation parameter)) amounted to 8 µM. The “stability, RE (%) from nominal concentration” value is on record as 0.6% in data set [4] (37°C (1h), PPL 0.95 µM); 0.0% in data set [4] (37°C (1h), PPL 212.7 µM); -4.0% in data set [4] (Auto injector (24 hs), PPL 0.95 µM); 0.0% in data set [4] (Auto injector (24 hs), PPL 212.7 µM); 0.6% in data set [4] (Room temperature (4 hs), PPL 0.95 µM); 6.0% in data set [4] (Room temperature (4 hs), PPL 212.7 µM). In addition, the IC50 is > 100 µM in data set [5] and 7.2 µM in data set [6].

For orientation: Hill coefficient means the slope factor of the fitted curve. As a reminder, the kinact is the rate constant of inactivation at saturating inhibitor. As usually defined, the IC50 is the point on the concentration scale where inhibition reaches its midpoint.
